Entries after “also recorded” stand apart in the source; their conditions may differ.
Key:
[1] = Plasma pharmacokinetics of entinostat; type: in vivo, human
[2] = type: in vivo, human
[3] = test system: estrogen receptor-positive advanced breast cancer; conditions: entinostat plus exemestane; prolonged from 19.8; cited from earlier work
[4] = Safety and DLT evaluation; type: in vivo, human
[5] = female, human, plasma, po, 3 mg
[6] = female, human, plasma, po, 3 mg/week
[7] = female, human, plasma, po, 5 mg
[8] = female, human, plasma, po, 5 mg/week
[9] = female, human, plasma, po, 7 mg
[10] = female, human, plasma, po, 7 mg/week
[11] = additional 21 patients, entinostat 5 mg/week + exemestane 25 mg/day
[12] = DLT observation stage, 5 mg group
[13] = Stage I, 3 mg/week monotherapy, n=4
[14] = Stage I, 5 mg/week monotherapy, n=12

Nc1ccccc1NC(=O)c1ccc(CNC(=O)OCc2cccnc2)cc1 [Entinostat]
Dose dependence of exposure (Cmax, AUC) ([1]; 3–7 mg): increased dose proportionally; also recorded: linear relationship between AUC0-168 and entinostat dose | Tmax ([1]; Day 22, 5 mg/week oral, N=12, median (Min., Max.)): 0.50 (0.25, 8.00) h | Tmax ([1]; female, human, plasma, oral): ~0.5 h | half-life ([1]; female, human, plasma, oral): 38.3 to 65.3 h | AUC(0-inf) [1, 5]: 572 ± 122 ng·h/mL | Cmax [1, 5]: 49.2 ± 8.38 ng/mL | half-life [1, 5]: 38.3 h | AUC(0-inf) [1, 6]: 609 ± 44.3 ng·h/mL | Cmax [1, 6]: 55.7 ± 38.2 ng/mL | Tmax [1, 6]: 0.47 h | half-life [1, 6]: 65.3 h | AUC(0-inf) [1, 7]: 1070 ± 364 ng·h/mL | Cmax [1, 7]: 101 ± 62.1 ng/mL | half-life [1, 7]: 51.7 h | AUC(0-inf) [1, 8]: 1310 ± 349 ng·h/mL | Cmax [1, 8]: 107 ± 63.2 ng/mL | half-life [1, 8]: 61.9 h | AUC(0-inf) [1, 9]: 1380 ± 206 ng·h/mL | Cmax [1, 9]: 154 ± 39.2 ng/mL | Tmax [1, 9]: 0.55 h | half-life [1, 9]: 48.1 h | AUC(0-inf) [1, 10]: 1650 ± 452 ng·h/mL | Cmax [1, 10]: 122 ± 76.1 ng/mL | half-life [1, 10]: 56.2 h | Grade 3/4 anemia [2, 11]: 9.5% | Grade 3/4 fatigue [2, 11]: 9.5% | Grade 3/4 neutropenia [2, 11]: 38% | Grade 3/4 thrombocytopenia [2, 11]: 9.5% | Occurrence rate of thrombocytopenia ([2]; entinostat in combination with exemestane, as quoted in Discussion): 10% | Overall survival (OS) [3]: 28.1 months | Tolerability ([4]; 3, 5, 7 mg/week): well tolerated at all doses | Grade 3/4 AEs [4, 12]: 16.7% | Suspicious DLT (G3 ventricular tachycardia) [4, 12]: one | Grade 3/4 AEs ([4]; DLT observation stage, 7 mg group): 33.3% | CTCAE grade 3 AE ([4]; Stage I, 3 mg/week group): no CTCAE grade 3 AE occurred | AKP elevation, entinostat-related AE of all grades [4, 13]: 0 No. (%) | ALT elevation, entinostat-related AE of all grades [4, 13]: 0 No. (%) | AST elevation, entinostat-related AE of all grades [4, 13]: 0 No. (%) | Abdominal pain, entinostat-related AE of all grades [4, 13]: 0 No. (%) | Anemia, entinostat-related AE of all grades [4, 13]: 2 (50) No. (%) | Back pain, entinostat-related AE of all grades [4, 13]: 0 No. (%) | Chest pain, entinostat-related AE of all grades [4, 13]: 0 No. (%) | Creatine increase, entinostat-related AE of all grades [4, 13]: 0 No. (%) | Creatinine phosphokinase increase, entinostat-related AE of all grades [4, 13]: 0 No. (%) | Debilitation, entinostat-related AE of all grades [4, 13]: 0 No. (%) | Diarrhea, entinostat-related AE of all grades [4, 13]: 0 No. (%) | Fatigue, entinostat-related AE of all grades [4, 13]: 0 No. (%) | Flatulence, entinostat-related AE of all grades [4, 13]: 0 No. (%) | Headache, entinostat-related AE of all grades [4, 13]: 0 No. (%) | Hypoalbuminemia, entinostat-related AE of all grades [4, 13]: 0 No. (%) | Hypocalcemia, entinostat-related AE of all grades [4, 13]: 0 No. (%) | Hypokalemia, entinostat-related AE of all grades [4, 13]: 0 No. (%) | Hypoproteinemia, entinostat-related AE of all grades [4, 13]: 0 No. (%) | LDH increase, entinostat-related AE of all grades [4, 13]: 0 No. (%) | Leukopenia, entinostat-related AE of all grades [4, 13]: 3 (75) No. (%) | Limb pain, entinostat-related AE of all grades [4, 13]: 0 No. (%) | Nausea, entinostat-related AE of all grades [4, 13]: 0 No. (%) | Neutropenia, entinostat-related AE of all grades [4, 13]: 3 (75) No. (%) | Palpitation, entinostat-related AE of all grades [4, 13]: 0 No. (%) | Serum Ca^2+ decrease, entinostat-related AE of all grades [4, 13]: 0 No. (%) | Serum Na+ decrease, entinostat-related AE of all grades [4, 13]: 0 No. (%) | Serum albumin decrease, entinostat-related AE of all grades [4, 13]: 0 No. (%) | Serum phosphate decrease, entinostat-related AE of all grades [4, 13]: 0 No. (%) | Serum urea increase, entinostat-related AE of all grades [4, 13]: 0 No. (%) | Thrombocytopenia, entinostat-related AE of all grades [4, 13]: 0 No. (%) | Γ-GT elevation, entinostat-related AE of all grades [4, 13]: 0 No. (%) | α-HBDH elevation, entinostat-related AE of all grades [4, 13]: 0 No. (%) | Cases of CTCAE grade 3 AE ([4]; Stage I, 5 mg/week group): four | AKP elevation, entinostat-related AE of all grades [4, 14]: 2 (16.7) No. (%) | ALT elevation, entinostat-related AE of all grades [4, 14]: 2 (16.7) No. (%) | AST elevation, entinostat-related AE of all grades [4, 14]: 2 (16.7) No. (%) | Abdominal pain, entinostat-related AE of all grades [4, 14]: 2 (16.7) No. (%) | Anemia, entinostat-related AE of all grades [4, 14]: 0 No. (%) | Back pain, entinostat-related AE of all grades [4, 14]: 3 (25) No. (%) | Chest pain, entinostat-related AE of all grades [4, 14]: 2 (16.7) No. (%) | Creatine increase, entinostat-related AE of all grades [4, 14]: 0 No. (%) | Creatinine phosphokinase increase, entinostat-related AE of all grades [4, 14]: 0 No. (%) | Debilitation, entinostat-related AE of all grades [4, 14]: 2 (16.7) No. (%)

From paper PMC8484140 (Targeted Oncology, 2021)
